In patent publication US12616656B2, “Adventitial painting modality of local drug delivery to abate intimal hyperplasia” (University of Virginia Patent Foundation, priority 2021, dated 2026):

Experiments:
[1] = tested on: active (cleaved) caspase-3; assay: Immunostaining of the apoptosis marker active (cleaved) caspase-3; type: in vivo, Sprague-Dawley rats; conditions: Mode-3 painting, 14 days
Experimental: (§1) Paraffin-embedded specimens were processed into 5-μm thick sections for immunostaining. The slides were deparaffinized and hydrated through series of xylenes and graded alcohol. Antigens were retrieved using citrate buffer for 2 hours at 80° C. in a high-pressure cooker. Endogenous peroxidase was blocked by incubation with 3% H2O2 for 10 min. Following application of a monoclonal antibody against either cleaved Caspase 3 (9661, Cell Signaling Technology, Inc., Danvers, MA) or CD68 (T-3003, BMA Biomedicls, Augst, Switzerland), ImmPRESS HRP Anti-Rabbit IgG (Peroxidase) Polymer Detection Kit (MP-7451, Vector Laboratories Inc., Burlingame, CA) was used as the secondary antibody. The staining intensity was visualized using ImmPACT DAB Peroxidase (HRP) Substrate (SK-4105, Vector Laboratories). Data values from 6 different portions were averaged for each animal, and averages from total animals in a group were used to calculate mean+SEM and statistical analysis.

collagen = assay: Masson's trichrome staining, collagen density in the artery; type: in vivo, Sprague-Dawley rats; conditions: Mode-1, 14 days
Experimental: Four to six cross-sections cut from different locations (see detailed description above) from the balloon-injured CCA per each animal were used for Masson's trichrome staining. The color images were transformed into monochrome images at an 8-bit scale using Image J. After adjusting the threshold consistent through the analysis, integrated density of interest was measured. Data values from 6 sections were averaged for each animal, and averages from total animals in a group were used to calculate mean+SEM and statistical analysis.

CD68 = assay: Immunostaining of the inflammation marker CD68; type: in vivo, Sprague-Dawley rats
Experimental: as §1

IH in a rat model = conditions: perivascular administration; cited from earlier work

| fibrosis (adventitial collagen accumulation) (collagen) | number of CD68-positive cells (CD68; Mode-1 and Mode-2, 14 days) | inflammation marker (CD68 staining) (CD68; Mode-3 painting, 14 days) | Compound | apoptosis marker (caspase-3 positive cells) [1] | IH (IH in a rat model) |
| --- | --- | --- | --- | --- | --- |
| alleviated this fibrotic severity | the difference was abolished | reduced CD68 staining in the vessel wall | CO[C@H]1C[C@@H]2CC[C@@H](C)[C@@](O)(O2)C(=O)C(=O)N2CCCC[C@H]2C(=O)O[C@H]([C@H](C)C[C@@H]2CC[C@@H](O)[C@H](OC)C2)CC(=O)[C@H](C)/C=C(\C)[C@@H](O)[C@@H](OC)C(=O)[C@H](C)C[C@H](C)/C=C/C=C/C=C/1C [Rapamycin] | lowered the overall number of caspase-3 positive cells | – |
| – | – | – | CC(C)N(C[C@H]1O[C@@H](n2cnc3c(N)ncnc32)[C@H](O)[C@@H]1O)[C@H]1C[C@@H](CCc2nc3cc(C(C)(C)C)ccc3[nH]2)C1 [Pinometostat, pinometostat] | – | reduced IH |
